The source of these data is ChEMBL document CHEMBL1157539, “Thousands of chemical starting points for antimalarial lead identification” (Nature, 2010).

Each structure is given as a SMILES string.

The test deals with Plasmodium falciparum. Kind of test: GSK_TCMDC: Inhibition of Plasmodium falciparum 3D7 in whole erythrocytes, using parasite LDH activity as an index of growth. Particulars: Plasmodium falciparum, 3D7. Format: functional, organism-based.
As to `O=C(Cn1c(CCc2cccc(F)c2F)cc(=O)c2ccccc21)N(Cc1ccc(-c2ccc(C(F)(F)F)cc2)cc1)C1CCN(CCO)CC1`, the XC50 turned out to be 1320 nM. Turning to `CC(C)N1CCC(N(Cc2ccc(-c3ccc(C(F)(F)F)cc3)cc2)C(=O)Cn2c(CCc3cccc(F)c3F)cc(=O)c3cn(C)nc32)CC1`, the XC50 was 1170 nM. The compound `O=C(Nc1ccccc1O)c1ccc(Oc2cccc(C(=O)Nc3ccccc3O)c2)cc1` registered an XC50 of 799 nM. The compound `CS(=O)(=O)Nc1ccc2[nH]cc(C3CCN(CCCCCNC(=O)/C=C/c4ccc(Cl)c(Cl)c4)CC3)c2c1` yielded an XC50 of 736 nM.

Take `O=C(/C=C/c1ccc(Cl)c(Cl)c1)NCCCCCN1CCC(c2c[nH]c3cc(O)ccc23)CC1`: the XC50 turned out to be 745 nM. In the case of `CCCCCc1ccc(N2C(N)=NC(N)=NC2(C)C)cc1` it was 131 nM.

Regarding `Cc1cc(=NN=Cc2ccc(Cl)cc2)c2ccc(F)cc2[nH]1`, the XC50 stood at 757 nM. Turning to `CCOC(=O)C1=C(C)N=c2sc(=Cc3cc(Cl)ccc3O)c(=O)n2C1c1ccc2c(c1)OCO2` (stereo unspecified), the XC50 was found to be 712 nM. `Cc1cc(-c2cccc(CNCc3ccc(F)cc3)c2)ccc1S(=O)(=O)NCCN1CCCC1` showed an XC50 of 732 nM. Regarding `Cc1cc(-c2cccc(CNC3CCN(C)CC3)c2)ccc1S(=O)(=O)NC1CCC1`, the XC50 came out at 731 nM. With `CCN(C)C(=O)n1ncc2c3c(N)nc(N)nc3ccc21`, the XC50 is 176 nM.

For `O=S(=O)(NCCN1CCCC1)c1cccc(-c2ccc(CNCc3ccccc3)cc2)c1`, the XC50 stood at 1000 nM. The compound `Cc1cnc2ccc(NS(=O)(=O)c3ccc4c(Cl)cccc4c3)cc2c1N1CCNCC1` came in with an XC50 of 751 nM. Consider `CC1(C)NC(N)=NC(=N)N1OCC1CCCCC1`, for which the XC50 is 3.2 nM. Regarding `Cc1cccc2nc(-c3cccc(-c4cccc(NC(=O)c5ccc(C(N)=O)cc5)c4)c3)[nH]c12`, the XC50 was found to be 323 nM.

In turn, `O=C(/C=C/c1ccc(Cl)c(Cl)c1)N1CCC(CCN2CCC(c3c[nH]c4ccncc34)CC2)CC1` registered an XC50 of 1140 nM. Compound `CCN(CC)c1nc(-c2ccccc2)cc(-c2ccccc2)c1C#N` showed an XC50 of 450 nM. The value for `Cc1cccc(OCC2CCN(c3ncc(C(=O)NC4CC4)cc3Cl)CC2)c1` was 1330 nM. As to `CN(C)Cc1cc(Nc2ccnc3cc(Cl)ccc23)ccc1O`, the XC50 is 9.49 nM. With `N=C(N)Nc1nc(-c2ccc(NCc3ccc(CNc4cccc(-c5csc(NC(=N)N)n5)c4)cc3)cc2)cs1`, the XC50 was determined as 310 nM. The value for `COc1cc(NC(=O)c2cccs2)c(OC)cc1NC(=O)Nc1cccc(Cl)c1` was 1000 nM; that for `CCc1cn2c3c(cc(C(=O)N[C@@H](Cc4ccccc4)[C@H](O)CNC4CCCCC4)cc13)N(C)S(=O)(=O)C2` was 87.1 nM. As to `OC(CNc1ccnc(Nc2ccc(Cl)cc2)n1)c1ccccc1C(F)(F)F` (stereo unspecified), the XC50 came out at 788 nM.

`O=C(Cc1ccccc1)NC1(c2ccccc2)CCN(CCc2c[nH]c3ccc(F)cc23)CC1`: the XC50 came to 878 nM. For `COc1ccc(CCN(C)CCCCNC(=O)c2ccc(NC(=O)c3ccc(Cl)cc3)cc2)c(OC)c1`, the XC50 was determined as 921 nM. `Cc1ccc(-c2nnc(Nc3ccc(CC(N)=O)cc3)c3ccccc23)cc1S(=O)(=O)NCC1CCCO1` (stereo unspecified) returned an XC50 of 791 nM. For `COc1cc2nc(N3CCC(CNC(=O)c4ccc(-c5ccc(C(=O)N(C)C)cc5O)cc4)CC3)nc(N)c2cc1OC`, the XC50 worked out at 278 nM. As to `O=C(NC1CCN(CC2(c3ccc(Cl)cc3)CCC2)CC1)c1cscn1`, the XC50 turned out to be 535 nM. As for `OCC1CCN(Cc2cccc(-c3ccc(-c4nc5cc(F)ccc5[nH]4)cc3)c2)CC1`, the XC50 was found to be 720 nM. Compound `CCCO[C@H](C(=O)OC)[C@@H](CC1Cc2ccccc2C1)C(=O)NCCC1=CCCCC1` yielded an XC50 of 970 nM. Take `COCCOc1cccc(CN2CCC(c3cc4nc(C)cc(C(F)(F)F)n4n3)C2)c1` (stereo unspecified): the XC50 was determined as 1330 nM. The value for `Cc1cccc(NC(=O)NCc2ccccc2)n1` was 944 nM; that for `N#Cc1ccc2c(c1)CCN(CCC1CCC(Nc3ncnc4ccccc34)CC1)C2` (stereo unspecified) was 635 nM; that for `COc1ccc(CCN(C)CCOc2ccc(NC(=O)c3ccc([N+](=O)[O-])c4c(=O)c5ccccc5[nH]c34)cc2)cc1OC` was 927 nM.

On to `COC(=O)c1cccc(CNCc2ccc(-c3ccc(-c4nc5cc(C(F)(F)F)ccc5[nH]4)cc3)cc2)c1`, for which the XC50 worked out at 298 nM. Regarding `COc1ccc2nccc(N3CCN(CCNCc4ccc5c(n4)NC(=O)CS5)CC3)c2n1`, the XC50 worked out at 843 nM. Turning to `Cc1ccc(NC(=N)Nc2ncccc2OCc2c(F)cccc2Cl)cc1`, the XC50 was 1190 nM. In the case of `COc1ccc(Nc2nccc(N3CCC(NC(=O)Nc4cccc(OC)c4)C3)n2)cc1` (stereo unspecified) it was 424 nM; in that of `CC(C)c1ccc(C=CC(=O)NC2CCC(CN3CCC(c4c[nH]c5ccccc45)CC3)CC2)cc1` (stereo unspecified), 807 nM. As to `CS(=O)(=O)c1ccc(-c2cncc(Nc3cccc([N+](=O)[O-])c3)c2)cc1`, the XC50 was determined as 773 nM.

`CCCCCCCN1CCC(CC(=O)Nc2ccnc3ccc(OC)cc23)C(CC)C1` (stereo unspecified) registered an XC50 of 593 nM.

For the compound `O=C(NC1CCCC1)c1ccc(N2CCC(NCc3cccc(C(F)(F)F)c3)CC2)cc1`, the XC50 was found to be 1330 nM. In the case of `COc1ccc(Nc2ncc3c(-c4cccc(NC(=O)CC(C)C)c4)c[nH]c3n2)cc1OC`, the XC50 is 826 nM.

Take `Cc1cc(C)cc(OCC(O)CN(Cc2cc(Cl)cc(Cl)c2)C(=O)Nc2ccc(Cl)cc2)c1` (stereo unspecified): the XC50 is 810 nM. Compound `CN1CCC(N2CCN(CCOc3cc(NC(=O)/C=C/c4ccccc4Cl)ccc3Br)CC2)CC1` displayed an XC50 of 360 nM. `CN(C(=O)/C=C/c1cc(C(F)(F)F)ccc1F)C1CCN(CCCCCNC(=O)/C=C/c2ccc(Cl)c(Cl)c2)CC1` had an XC50 of 287 nM. Compound `Nc1nc(N)c2cc(NS(=O)(=O)c3ccc(-c4ccccc4)cc3)ccc2n1` displayed an XC50 of 699 nM. With `CCCCCCc1cc(O)c2c3c(c(=O)oc2c1)CCN(C)C3`, the XC50 was 671 nM. The value for `COc1cc2nc(Nc3ccc(N4CCOCC4)cc3)nc(N)c2cc1OC` was 871 nM. The value for `Oc1ccc(CCNc2nc(NCc3ccccc3-c3ccccc3)nc(N3CCCNCC3)n2)cc1` was 877 nM. Regarding `O=C(Nc1cccc(F)c1)NC1CCN(CCCCCNC(=O)C2CC2c2ccc(Cl)c(Cl)c2)CC1` (stereo unspecified), the XC50 is 763 nM.

With `COC(=O)c1cccc(C#CCCOCCCCCCNC[C@H](O)c2cc(Cl)c(N)c(Cl)c2)c1`, the XC50 turned out to be 771 nM. The compound `Fc1ccc2[nH]c(-c3ccc(-c4cccc(CN5CCN(CCN6CCOCC6)CC5)c4)cc3)nc2c1` showed an XC50 of 145 nM. The compound `CC12CN3CC(C)(CN(C1)C3c1cc(Br)ccc1O)C2O` (stereo unspecified) displayed an XC50 of 228 nM. `CCN1C(=O)N(CCC(C)C)C2(CCN(Cc3ccc(OC)cc3O)CC2)C1=O` had an XC50 of 868 nM. `CCCCc1cc(Cc2cnc(N)nc2N)cc(OC)c1OC` yielded an XC50 of 1040 nM.

For `O=C(c1ccc([N+](=O)[O-])o1)N1CCN(c2nc3c(F)cc(F)cc3s2)CC1`, the XC50 is 974 nM.

In turn, `COc1ccc2ccccc2c1C=NN=c1cc(C)[nH]c2cc(C(F)(F)F)ccc12` gave an XC50 of 1040 nM. For the compound `C/C=C1\CN2CC[C@H]1C[C@H]2[C@H](O)c1ccnc2ccc(O)cc12`, the XC50 was 601 nM. The value for `Cc1cc(-c2cccc(CNCc3ccccc3)c2)ccc1S(=O)(=O)NCCN1CCCC1` was 732 nM. `CCCCC(=O)NC(c1cccs1)c1cc(Cl)c2cccnc2c1O` (stereo unspecified) displayed an XC50 of 380 nM. On to `COCC(C)n1c(SCC(=O)Nc2cc(C(F)(F)F)ccc2Cl)nc2ccccc2c1=O` (stereo unspecified), for which the XC50 worked out at 130 nM. The compound `CCCN(Cc1ccc(C)cc1)Cc1cc(=O)c2cc(Cl)ccc2[nH]1` displayed an XC50 of 1050 nM. As for `COc1ccccc1-c1ccc(C(=O)NCC2CCCN(Cc3cccc(C(F)(F)F)c3)C2)s1` (stereo unspecified), the XC50 is 1540 nM. Compound `O=c1c2ccccc2[nH]c2cc(Cl)ccc12` yielded an XC50 of 873 nM. In the case of `Cc1ccccc1C1CCN(C2CCC(NC(=O)/C=C/c3ccc(OC(F)(F)F)cc3)CC2)CC1` (stereo unspecified) it was 857 nM; in that of `Cc1ccccc1C1CCN(C2CCC(NC(=O)c3cc4cc(C(C)C)ccc4[nH]3)CC2)CC1` (stereo unspecified), 695 nM; in that of `Cc1cc(NC(=O)[C@H](CC2CCCCC2)Nc2ccc(C#N)c3ccccc23)ccc1F`, 684 nM. The value for `Cc1cccc2nc(-c3cccc(-c4ccc(NC(=O)Nc5ccsc5)cc4)c3)[nH]c12` was 116 nM; that for `O=S(=O)(NCCN1CCCC1)c1ccc(-c2cccc(CNCc3ccccc3)c2)s1` was 806 nM; that for `CCSc1ccccc1COc1c(C)nc(N)nc1N` was 68.4 nM. Turning to `CNC(=O)Cc1ccc(C(=O)Nc2cccc(-c3cccc(-c4nc5cccc(C)c5[nH]4)c3)c2)cc1`, the XC50 came to 530 nM.

`Oc1ccc(CCNc2nc(NCCCOc3ccccc3-c3cccc(C(F)(F)F)c3)nc(N3CCNCC3)n2)cc1`: the XC50 stood at 882 nM.

`O=C(Nc1cccc(C(F)(F)F)c1)Nc1ccc(Cl)c(C(F)(F)F)c1` displayed an XC50 of 890 nM. `CCCCOc1ccc(C(=O)C(CCC(CNC(C)(C)C)C(=O)c2ccc(OCCCC)cc2)CNC(C)(C)C)cc1` (stereo unspecified) had an XC50 of 1020 nM.

The compound `CC(=O)N(C)C1CCN(Cc2cccc(-c3ccc(-c4nc5cc(C(F)(F)F)ccc5[nH]4)cc3)c2)C1` (stereo unspecified) displayed an XC50 of 563 nM. `CC(C)(O)CC(C)(C)c1cc(Cl)ccc1O` returned an XC50 of 455 nM. On to `Nc1ncc(-c2cn[nH]c2)cc1-c1nc2ccc(Cl)cc2[nH]1`, for which the XC50 amounted to 799 nM. `Cc1cc(N2CCC(NS(=O)(=O)c3cccc4cccnc34)CC2)nc(Nc2cccc(C#N)c2)n1` displayed an XC50 of 748 nM. Compound `CCCc1cc(Cc2cnc(N)nc2N)cc(OCCCCCC(=O)O)c1OC` displayed an XC50 of 164 nM. Compound `O=C(Nc1ccc(-c2nc3ccccc3[nH]2)cc1)c1ccc(N2CCCC2)c([N+](=O)[O-])c1` showed an XC50 of 678 nM. On to `CCNc1cc(C(=O)N[C@@H](Cc2ccccc2)[C@H](O)CNCc2ccc3c(c2)OCCO3)cc(N2CCCCS2(=O)=O)c1`, for which the XC50 came out at 1350 nM. The compound `OC(c1ccccc1)C1CN(Cc2ccccc2)CCC1(O)c1ccccc1` (stereo unspecified) returned an XC50 of 846 nM. In the case of `O=C(Nc1ccc(-c2cccc(-c3nc4cc(C(F)(F)F)ccc4[nH]3)c2)cc1)Nc1ccc(F)c(F)c1F` it was 706 nM; in that of `CCCCCCCCn1c2c(c(=N)c3c1CCC3)CCC2`, 222 nM; in that of `CC(C)[C@H](NC(=O)c1ccc(O)c(-c2cccc(C(F)(F)F)c2)c1)C(=O)NC1CCCc2ccccc21` (stereo partly specified), 930 nM.
